Data reported in US20050107441A1, “Compositions and methods for altering glucose production” (priority 2001, published 2005).

How the values were obtained:
[1] = system: SHP mRNA; assay: Insulin treatment of ZDF rats, real-time quantitative PCR of liver RNA: SHP mRNA; type: in vivo, Zucker diabetic fatty (ZDF) rats; conditions: pooled RNA samples, 6 hours after subcutaneous insulin vs vehicle (0.9% normal saline)
Description: (§1) In these experiments, ZDF rats were treated for 6 hours with insulin or vehicle (0.9% normal saline) alone. At the end of this period, the rats were killed and RNA prepared from their livers. […] Conversely, PEPCK levels decreased by approximately 2 fold in response to insulin.
(§2) All procedures performed were in compliance with the Animal Welfare Act, USDA regulations and approved by the GlaxoSmithKline Institutional Animal Care and Use Committee. Animals were housed at 72 F and 50% relative humidity with a 12 hour light and dark cycle, and fed chow diet (Formulab Diet 5008, PMI Feeds Inc., Richmond, Ind.). Insulin-treated animals received a mixture of HUMULIN®N and HUMULIN®R (Lilly, Indianapolis, Ind.) by subcutaneous injection and were sacrificed six hours later. RTQ-PCR was performed using an ABI PRISM 7700 Sequence Detection System instrument and software (PE Applied Biosystems, Inc., Foster City, Calif.) in accordance with procedures described by Way et al. (Endocrinology 2001 142: 1269-77). Primers used include:Rat PEPCK forward: TGAGGAAGTTTGTGGAAG (SEQ ID NO:1) • Rat PEPCK reverse: GCCGTCGCAGATGTGAAT (SEQ ID NO:2) • Rat PEPCK probe: TGCCCAGCTGTGCCAGCC (SEQ ID NO:3) • Rat SHP forward: TGGTACCCAGCTAGCCAAG (SEQ ID NO:4) • Rat SHP reverse: TGTTCTTGAGGGTGGAAGC (SEQ ID NO: 5) • Rat SHP probe: CGCCTGGCCCGAATCCTCC (SEQ ID NO:6) [drawing]

[2] = system: PEPCK; assay: Insulin treatment of ZDF rats, real-time quantitative PCR of liver RNA: PEPCK mRNA; type: in vivo, Zucker diabetic fatty (ZDF) rats; conditions: pooled RNA samples, 6 hours after subcutaneous insulin vs vehicle (0.9% normal saline)
Description: as §1, §2

insulin
SHP mRNA levels increased in response to insulin [1]: approximately 17 fold
PEPCK levels decreased in response to insulin [2]: approximately 2 fold
